This is an account of results in article PMC9147390, “Evaluation of TILI-2 as an Anti-Tyrosinase, Anti-Oxidative Agent and Its Role in Preventing Melanogenesis Using a Proteomics Approach” (Molecules, 2022).

A short description of data set [1]: ABTS radical scavenging assay. The following applies: 0 to 50 µM, 6 min, room temperature. As for the experimental part: The ABTS radical scavenging assay was performed with slight modifications of the protocol reported by Re et al.. Briefly, ABTS^+ was generated by the incubation of 7 mM ABTS with 2.45 mM potassium persulfate for 16 h at room temperature. Next, the ABTS radical solution was diluted until the absorbance at 734 nm was 0.7. The diluted ABTS radical solution (100 µL) was mixed with TILI-2 (final concentration 0–200 µM, 10 µL) and incubated at room temperature for 6 min. After that, the absorbance at 734 nm was measured using a SpectraMax M5 plate reader (Molecular Devices, Sunnyvale, CA, USA). The percentage of ABTS radical inhibition was calculated using the equation below: ABTS radical inhibition %=1−A734 sample/A734 control×100 where A734 sample and A734 control are the absorbance at 734 nm of the reaction with and without peptide.
(§1) The data were represented as mean ± SD (n = 3). An ANOVA test according to Duncan (p < 0.05) was used for each comparison (IBM SPSS Statistics 20).

Data set [2] is described as follows: DPPH radical scavenging assay. To be noted: 0 to 200 µM, 30 min, room temperature, dark. As to the method: The DPPH radical scavenging assay was performed with slight modifications of the protocol reported by Jandaruang et al.. Briefly, a DPPH radical solution (0.1 mM, 100 µL) was mixed with TILI-2 (final concentration 0–200 µM, 10 µL) and incubated at room temperature in the dark for 30 min. Then, the reaction was monitored by measuring the absorbance of 515 nm using a SpectraMax M5 plate reader (Molecular Devices, Sunnyvale, CA, USA). DPPH radical inhibition (%) was calculated using the equation below: DPPH radical inhibition %=1−A515 sample/A515 control×100 where A515 sample and A515 control are the absorbance at 515 nm of the reaction with and without peptide.
as §1

A further data set deals with NHDF cells. Nature of the data set: Cell viability assay (MTT), fibroblasts. Type of data set: cell-based, human. The following applies: 24 h. As to the method:
(§2) Fibroblast cells (NHDF) and B16F1 cells were purchased from the American Type Culture Collection (ATCC, Manassas, VA, USA) and cells were cultured in DMEM supplemented with 10% heat-inactivated FBS, 1% penicillin-streptomycin solution, and 5% L-glutamine. RAW 264.7 cells were purchased from the American Type Culture Collection (ATCC, Manassas, VA, USA) and cells were cultured in RPMI supplemented with 10% heat-inactivated FBS and 1% penicillin-streptomycin solution. These cells were cultured at 37 °C in a 5% CO2 and 90% relative humidity incubator. Cell viability assay was performed using slight modifications of the protocol described by Phosri et al.. Briefly, fibroblast cells (NHDF) (8000 cells/well) and RAW 264.7 cells (25,000 cells/well) were seeded onto a 96-well plate and allowed to recover overnight. Then, the cells were incubated with different concentrations of peptides (final concentration of 0–1400 µM, 100 µL). After 24 h incubation, the culture medium was removed, and MTT was added (0.5% w/v, 100 µL). After incubation for a further 30 min at 37 °C, DMSO was added and the absorbance at 570 nm was measured. The cell viability was calculated using the equation below: Cell viability %=A570 sample/A570 control×100 where A570 sample and A570 control are the absorbance of cells with and without the peptide treatment. The data were represented as mean ± SD (n = 3). […]

A further data set deals with RAW 264.7 cells. Nature of the data set: Cell viability assay (MTT), macrophages. Type of data set: cell-based. To be noted: 24 h. As to the method:
as §2

The subject of data set [3] is human keratinocyte (HaCaT). The following applies: new results consistent with previous reports; cited from earlier work.
Data set [4] has as its system mouse melanoma (B16F1) cells. The following applies: B16F1, 350 µM; cited from earlier work.
A further data set relates to mouse B16 melanomas. The following applies: cited from earlier work. The text has this: Bioactive peptides are a promising group of depigmenting agents because they are derived from natural sources and therefore display low cytotoxicity.
Data set [5] has as its target T1, mushroom tyrosinase (mushroom, UniProt C7FF04 1-392). In words: cell-based or functional assay.
Data set [6] has as its target T1, mushroom tyrosinase. In words: enzyme inhibition kinetics (Lineweaver-Burk plot and secondary plot); monophenolase activity of mushroom tyrosinase, L-tyrosine 0.10-0.80 mM, TILI-2 0-300 µM, 50 mM phosphate buffer pH 6.8, 25 °C, absorbance at 475 nm; Ki from slope versus TILI-2 concentration. To be noted: both partners purified.

No end group written: not given here.

T1 sequence (C7FF04 1-392): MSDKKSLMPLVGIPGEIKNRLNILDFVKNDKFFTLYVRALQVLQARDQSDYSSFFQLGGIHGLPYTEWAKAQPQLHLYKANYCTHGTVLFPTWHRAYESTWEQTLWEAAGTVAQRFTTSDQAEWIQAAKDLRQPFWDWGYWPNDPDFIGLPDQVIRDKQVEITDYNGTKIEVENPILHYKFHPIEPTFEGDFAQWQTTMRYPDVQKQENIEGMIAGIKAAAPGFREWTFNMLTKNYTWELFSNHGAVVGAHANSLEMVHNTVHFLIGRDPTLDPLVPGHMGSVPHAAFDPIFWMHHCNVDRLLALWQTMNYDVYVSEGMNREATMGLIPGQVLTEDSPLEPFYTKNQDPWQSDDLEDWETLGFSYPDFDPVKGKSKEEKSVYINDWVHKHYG

In general, IC50 refers to the concentration needed to halve the response being measured. High values mean weaker potency, low ones greater potency. Regarding `O=C1O[C@H]([C@@H](O)CO)C(O)=C1O` [Ascorbic acid, L-Ascorbic acid], in [1] (734 nm), the “ABTS radical scavenging (range over concentrations)” value is reported as 11.64–82.68%. Further, the IC50 in data set [1] (absorbance 734 nm, mean ± SD, n = 3) is 15.9 ± 0.16 µM; in data set [2] (absorbance 515 nm, mean ± SD, n = 3), 40.09 ± 0.21 µM. In addition, the “DPPH radical scavenging (range over concentrations)” value in data set [2] (515 nm) is given as 13.79–82.63%.

Turning to CNGVQPK [TILI-2], the Cell viability is 99.65 ± 1.31% with NHDF cells (1400 µM) and 105.41 ± 5.42% in the data set on RAW 264.7 cells (1400 µM). Besides, the “cytotoxicity (in words)” value is “not toxic” in the data set on NHDF cells (NHDF, 0 to 1400 µM, MTT); “not toxic” in the data set with RAW 264.7 cells (RAW 264.7, 0 to 1400 µM, MTT); “not toxic” in data set [3]; “non-toxic” in data set [4].

Turning to “LQPSHY [CT-2, CT-2 (LQPSHY), a C-terminus tyrosine peptide derived from rice bran]”, the “melanogenesis (in words)” value in the data set with mouse B16 melanomas was “repressed melanogenesis”.

B1: Tyrosinase Inhibitor Leucrocin I-2 (TILI-2) (peptide)
peptide: CNGVQPK
notes: N-terminal cysteine-containing heptapeptide, a peptide derivative from Leucrocin I; source: synthetic peptide (GL Biochem Ltd., Fmoc solid-phase synthesis, purity more than 95%)
For orientation: Ki means the equilibrium dissociation constant of an inhibitor or competing ligand from its target. Lower therefore signals higher affinity. For the molecule B1, the “IC50 of inhibition of tyrosinase monophenolase activity (L-tyrosine as substrate, A475)” value in the data set with mushroom tyrosinase [5] is 583 µM. In addition, the Ki with mushroom tyrosinase [6] worked out at 273 µM.
